Reference: patent US11041207B2 (priority 2015, dated 2021)
“And” between values parts separate entries of the source, which are not always exact repeats. Equal entries are not always repeated. “Also recorded” adds a separate entry of the source.

Experiments:
[1] = in vivo; cited from earlier work
schizophrenia patients = details: human, in vivo
[2] = human, in vivo
[3] = parameters: species or system human; details: in vivo
[4] = human, in vivo; remark: listed apart in the source
[5] = tested on: bipolar disorder patients; details: in vivo; cited from earlier work
[6] = human, in vivo; remark: listed apart in the source

SMILES	effect on circulating proline [1]	β (95% CI), bivariate association of VPA treatment with total SANS score (schizophrenia patients)	β, SANS total score of Val/Val versus Val/Met and Met/Met patients (schizophrenia patients)	fasting plasma proline, mean±SD [2]	patients showing improvement in negative symptoms after treatment onset [3]	L-serine level [4]	fasting glycine level [4]	blood level considered the lower end of the therapeutic range [5]	fasting plasma proline versus patients who did not receive VPA [6]
CCCC(CCC)C(=O)O [VPA, 2-propylpentanoic acid]	upregulates circulating proline; also recorded: strong up-regulator of proline levels	−0.578 (−7.157, 6.001)	−12.17	299.29±94.76	2 out of 9 and 5 out of 7 and two and five	117 µM	361 µM	50 µg/mL	significantly higher
CCO [Ethanol]	increases circulating proline levels								
